{
  "source": "patent EP1370276B1",
  "about": "“INTERCELLULAR COMMUNICATION FACILITATING COMPOUNDS AND THEIR MEDICAL USE” (Zealand Pharma A/S, priority 2001, dated 2002)",
  "key": {"[1]": {"tested_on": "phosphoinositol turnover in rat primary cardiomyocytes", "assay": "Phosphoinositol turnover in primary cardiomyocyte cultures", "assay_type": "cell-based", "conditions": "for EC50: enhancement of phospho-inositol turnover", "experimental": "Neonatal Wistar rats (1-2 days old) are used. Hank's calcium- and magnesium-free balanced salt solution, buffered with 10 mM HEPES is used for washing during cell separation procedures. The hearts are excised, the ventricles isolated and the tissue cut into small pieces. The myocardial cells are isolated by stepwise enzymatic degradation with collagenase 0.05%, as described by ^[35]. After repeated rounds of centrifugation and washing, the precipitated cells are resuspended in culture medium M199 with Earle's salt, 10% NCS, penicillin (75 U/mL), and streptomycin (75 U/mL) and pre-plated in a Petri dish for 90 minutes. The non-adherent cells are collected in the culture medium and plated in multidishes at 2.5*10^5 cells/well. The cultures are kept in a water-saturated CO2-incubator at 37°C. The cardiomyocyte cultures are used for analyses after 6-7 days.\nCardiomyocyte cultures are incubated for 48 hours in culture medium containing 4 µCi/mL myo-[2-^3H]inositol to label the inositol phospholipids. On the day of analysis the medium is replaced by a buffer solution containing lithium and incubated at 37°C, as described by Meier et al. ^[36]. After at least five minutes this buffer is replaced by the same volume of buffer containing test compound and incubated for exactly 20 minutes. The reaction is stopped by rapid replacement of the buffer by ice cold 4%v/v perchloric acid (PCA) and incubation for at least 20 minutes at 0°C. The PCA-extract is neutralised and the [^3H]inosltol phosphates are separated by anion-exchange chromatography using Amprep™ columns containing 100 mg SAX Quaternary amine. The [^3H]inositol mono-phosphates are eluted and radioactivity in the fraction measured by liquid scintillation counting.\nBefore adding test substances to the cultures, the cells are depleted of glucose and oxygen by incubating them in a N2-atmosphere in glucose-free lithium-buffer for 10 minutes at 37°C. Control cells are incubated likewise only at normal atmospheric conditions and in a buffer containing glucose."}, "[2]": {"tested_on": "human osteoblastic cells", "assay": "DDT-induced uncoupling, Lucifer Yellow dye transfer in human osteoblastic cells", "assay_type": "cell-based", "conditions": "10^-8 mol/l, 10 minutes, after DDT 13 µM for 60 minutes", "experimental": "Human osteoblast cells: Cells were isolated from human bone marrow obtained by puncture of the posterior iliac spine of healthy volunteers (aged 20-36): 10-15 ml marrow material was collected in 15 ml PBS + Ca, Mg (Life Technologies, Cat.No. 14040) with 100 U/ml Heparin (Sigma, Cat.No. H-3149). The mononuclear fraction of the marrow was isolated on a Lymphoprep gradient (Nycomed Pharma, Cat.No. 1001967), by centrifugation at 2200 rpm for 30 min. After harvesting, the mononuclear fraction was washed once with culture medium and centrifuged at 1800 rpm for 10 min. Subsequently cells were counted and plated in culture medium at 8x10^6 cells/100 mm dish. hOB medium (all reagents obtained from Life Technologies): MEM w/o Phenol Red w/ Glutamax (Cat.No. 041-93013) supplemented with 10% heat inactivated fetal calf serum (Cat.No. 10106) and 0.1% Penicillin/Streptomycin (Cat.No. 15140). Medium was changed the following day and the cells were cultured at 37°C in 5%CO2 with medium change every 7 days. After 3-4 weeks of culture the cells had reached 70% confluence. The medium was then supplemented with 100 nM Dexamethasone (Sigma, Cat.No. D-4902) for 7 days. Cells were then plated for video imaging experiments: a 25 mm #1 glass coverslip was placed in a 35 mm dish (or each well of a 6-well multidish), cells were plated at 2.5x10^5 cells/coverslip and cultured for 2-3 days before use. […]"}, "[3]": {"tested_on": "CHO cells", "assay": "In situ binding of [125I]AAP10 on intact CHO cells", "conditions": "overnight at 4° C", "experimental": "CHO cells are seeded in 24-multi well dishes in a density of 7,900 cells/cm^2 (∼ 15,000 cells/well) and grown for 3 Days In Vitro (DIV) in 1 ml/well of F-12K Nutrient Mixture supplemented with 10% Foetal Calf Serum (FCS) and 1000 units penicillin/1000 µg streptomycin (pen/strep) in an atmosphere of 5% CO2 and 100% humidity at 37° C. The cell density has at that time increased to 295,000 cells/cm^2 (152 pgprot/cell ∼ 85 µgprot/well).\nOn the day of analysis cells are removed from the incubator and each well is washed twice with, depending on the experiment, either 2 ml pre-warmed (37 °C) or ice-cold (0 °C) D-PBS to remove serum. It is important to keep the period to a minimum during which cells are left without physiological solutions to avoid that they dry out during washing procedures. The cold washed cells are used directly for binding assays while the warm washed cells are used for experiments with glucose and oxygen deprivation.\nThe in situ binding is performed by a modified protocol based on the description by Koenig. […] Cells incubate overnight at 4° C to reach equilibrium. Each well, one at the time, is then rinsed rapidly with 2 x 1 ml D-PBS and left to dry.\n0.25 ml of 0.5 % Triton-X-100 (v/v) is added to each well and cells left for at least 1 h to solubilize. The extract is transferred to counting vials, the wells rinsed with 0.25 ml water and the rinse extract added to the corresponding vials. The vials are counted in a γ-counter. Table 3. In situ binding, IC50 (nM)."}},
  "data": [
    {"substance": "Ac-D-Tyr-D-Pro-D-4Hyp-Gly-D-Ala-Gly-NH2 [Compound 2]", "values": [
      {"measurement": "increase in phospho-inositol turnover compared with noradrenaline alone", "setting": "[1]; 100 nM + noradrenaline (300 nM), anoxia and glucose deprivation", "result": "about 70%"},
      {"measurement": "effect on noradrenaline (300 nM) induced increase in phospho-inositol turnover", "setting": "[1]; 100 nM, control conditions", "result": "had no further effect"},
      {"measurement": "EC50", "setting": "[1]; Glucose and oxygen deprivation", "result": 10, "unit": "nM"},
      {"measurement": "EC50", "setting": "[1]; Normal conditions", "result": 10, "unit": "nM"},
      {"measurement": "cell-to-cell dye transfer, median", "setting": "[2]", "result": 8.3, "unit": "cells"},
      {"measurement": "IC50", "setting": "[3]", "result": 0.5, "unit": "nM"}
    ]}
  ]
}
